Our source for the Km values is publication PMC11167041, “Purification, characterization and three-dimensional structure prediction of multicopper oxidase Laccases from Trichoderma lixii FLU1 and Talaromyces pinophilus FLU12” (Scientific Reports, 2024).

Where two headings read alike, the source gives them in different places.

In assay [1] the test system is T1, Laccase from Talaromyces pinophilus FLU12 (TpFLU12).
T1 construct: native extracellular enzyme purified from culture
Kind of assay: spectrophotometric oxidation assay, […] nm, Michaelis-Menten fit. Format: biochemical. Particulars: 50 mM acetate buffer pH 7, 50 °C; substrate varied 1-5 mM.

Assay [2] deals with Laccase from Trichoderma lixii FLU1 (TlFLU1). The note with it: 50 mM acetate buffer pH 5, 30 °C; substrate varied 1-5 mM.
The subject of assay [3] is T2, Laccase from Trichoderma lixii FLU1 (TlFLU1).
T2 construct: native extracellular enzyme purified from culture; monomer, 44 kDa (SDS-PAGE)
Kind of assay: spectrophotometric oxidation assay, […] nm, Michaelis-Menten fit. Format: biochemical. The note with it: 50 mM acetate buffer pH 5, 30 °C; substrate varied 1-5 mM.

Assay [4] shares this test system. The assay is described as above. The note with it: 50 mM acetate buffer pH 5, 30 °C; substrate varied 1-5 mM. In kind it is biochemical. The source holds these as a separate data set.
The test system of assay [5] is T1, Laccase from Talaromyces pinophilus FLU12 (TpFLU12). Described as above. Format: biochemical. Particulars: 50 mM acetate buffer pH 7, 50 °C; substrate varied 1-5 mM. The source holds these as a separate data set.
Assay [6] concerns T2, Laccase from Trichoderma lixii FLU1 (TlFLU1). Described as above. Format: biochemical. Particulars: 50 mM acetate buffer pH 5, 30 °C; substrate varied 1-5 mM. This is another data set of the same source.

In general, Km refers to the substrate concentration at which the rate is half of its maximum. With `CCn1c(=NN=c2sc3cc(S(=O)(=O)O)ccc3n2CC)sc2cc(S(=O)(=O)O)ccc21` [ABTS, 2,2-azino-bis-(3-ethyl-benzothiazoline-6-sulphonic acid)], the Km in assay [1] was found to be 8.2 µM; in assay [2], 10.8 µM.

Consider `COc1ccccc1O` [guaiacol], for which, in assay [3], the Km stood at 12.7 µM.

For the compound `COc1cccc(OC)c1O` [2,6-DMP, 2,6-dimethoxyphenol], the Km in assay [4] worked out at 13 µM.

With `O=C(O)/C=C/c1ccc(O)c(O)c1` [caffeic acid], the values for the Km in assay [5] and in assay [6] were 38.6 µM and 43 µM, respectively.
